Results reported in ChEMBL document CHEMBL1150724, “In vitro antiviral activity of dammar resin triterpenoids” (J Nat Prod, 1987).
Values after ≈ are worked out from the molar mass of the structure shown.

Columns and labels:
Human alphaherpesvirus 1 = assay: Antiviral activity against HSV1 MacIntyre replication in african green monkey Vero cells assessed as inhibition of virus-induced cytopathic effect after 48 hrs; format: functional, organism-based; details: Human alphaherpesvirus 1, MacIntyre
Human alphaherpesvirus 2 = assay: Antiviral activity against HSV2 MS replication infected in african green monkey Vero cells assessed as inhibition of virus-induced cytopathic effect after 48 hrs; format: functional, organism-based; details: Human alphaherpesvirus 2, MS

SMILES	IC50 (Human alphaherpesvirus 1)	IC50 (Human alphaherpesvirus 2)
CC1(C)CC[C@@]23CC[C@]4(C)[C@@](OC2=O)([C@@H]3C1)[C@@H](O)C[C@@H]1[C@@]2(C)CCC(=O)C(C)(C)[C@@H]2CC[C@]14C	5 µg/mL (≈ 10.6 µM)	5 µg/mL (≈ 10.6 µM)
CC(C)=CCC[C@@](C)(O)[C@H]1CC[C@]2(C)[C@@H]1CC[C@@H]1[C@@]3(C)CCC(=O)C(C)(C)[C@@H]3CC[C@]12C	2 µg/mL (≈ 4.52 µM)	5 µg/mL (≈ 11.3 µM)
CC(C)=CCC[C@](C)(O)[C@H]1CC[C@]2(C)[C@@H]1CC[C@@H]1[C@@]3(C)CC[C@H](O)C(C)(C)[C@@H]3CC[C@]12C	7 µg/mL (≈ 15.7 µM)	7 µg/mL (≈ 15.7 µM)
C=C(C)[C@@H]1CC[C@]2(C)[C@H](CC[C@@H]3[C@@H]([C@]4(C)CC[C@@H](C(C)(C)O)O4)CC[C@]32C)[C@@]1(C)CCC(=O)O [EICHLERIANIC ACID]	7 µg/mL (≈ 14.7 µM)	8 µg/mL (≈ 16.9 µM)
C=C(C)[C@@H]1CC[C@]2(C)[C@H](CC[C@@H]3[C@@H]([C@]4(C)CC[C@H](C(C)(C)O)O4)CC[C@]32C)[C@@]1(C)CCC(=O)O [SHOREIC ACID]	7 µg/mL (≈ 14.7 µM)	8 µg/mL (≈ 16.9 µM)

Next, values leading:

IC50 (Human alphaherpesvirus 1)	IC50 (Human alphaherpesvirus 2)	SMILES
2.5 µg/mL (≈ 5.86 µM)	3 µg/mL (≈ 7.03 µM)	C=C(CCC=C(C)C)[C@H]1CC[C@]2(C)[C@@H]1CC[C@@H]1[C@@]3(C)CC[C@H](O)C(C)(C)[C@@H]3CC[C@]12C [DAMMARADIENOL]
3 µg/mL (≈ 6.54 µM)	2 µg/mL (≈ 4.36 µM)	C=C(C)[C@@H]1CC[C@]2(C)[C@H](CC[C@@H]3[C@@H]([C@@](C)(O)CCC=C(C)C)CC[C@]32C)[C@@]1(C)CCC(=O)O [DAMMARENOLIC ACID]
7 µg/mL (≈ 15.8 µM)	5 µg/mL (≈ 11.3 µM)	CC(C)(O)[C@H]1CC[C@@]2(C)C1CC[C@]1(C)[C@@H]2CC[C@@H]2[C@@]3(C)CCC(=O)C(C)(C)[C@@H]3CC[C@]21C (stereo partly drawn) [HYDROXYHOPANONE]
2.5 µg/mL (≈ 5.5 µM)	8 µg/mL (≈ 17.6 µM)	C[C@H]1[C@H](C)CC[C@]2(C(=O)O)CC[C@]3(C)C(=CC[C@@H]4[C@@]5(C)CCC(=O)C(C)(C)[C@@H]5CC[C@]43C)[C@H]12 [URSONIC ACID]
